Data from ChEMBL document CHEMBL1150107, “Isolation and in vitro antiplasmodial activities of alkaloids from Teclea trichocarpa: in vivo antimalarial activity and X-ray crystal structure of normelicopicine” (J Nat Prod, 2002).

Assays:
Plasmodium falciparum [1] = assay: Antiplasmodial activity against chloroquine-sensitive Plasmodium falciparum HB3 after 48 hrs by LDH reporter activity; assay type: functional, organism-based; conditions: HB3, 48 h
Plasmodium falciparum [2] = assay: Antiplasmodial activity against chloroquine-resistant Plasmodium falciparum K1 after 48 hrs by LDH activity; assay type: functional, organism-based; conditions: K1, 48 h
Plasmodium berghei [3] = assay: Antimalarial activity as reduced parasitaemia at day 5 against Plasmodium berghei ANKA infected in BALB/c mice (Mus musculus) at 10 mg/kg/day intraperitoneal dose over 4 days; assay type: functional; design: scale not given: the % may be the effect or the level left
Plasmodium berghei [4] = assay: Antimalarial activity as reduced parasitaemia at day 5 against Plasmodium berghei ANKA infected BALB/c mice (Mus musculus) at 25 mg/kg/day intraperitoneal dose over 4 days; assay type: functional; design: scale not given: the % may be the effect or the level left
KB = assay: Cytotoxicity against human KB cells by alamar blue assay; assay type: cell-based
[5] = Selectivity index, ratio of IC50 for human KB cells to IC50 for chloroquine-sensitive Plasmodium falciparum HB3; assay type: toxicity, cell-based; conditions: read-out: Ratio IC50
[6] = Selectivity index, ratio of IC50 for human KB cells to IC50 for chloroquine-resistant Plasmodium falciparum K1; assay type: toxicity, cell-based; conditions: read-out: Ratio IC50

Row | Compound | IC50 (Plasmodium falciparum [1]) [µM] | IC50 (Plasmodium falciparum [2]) [µM] | also measured
1 | COc1ccc2c(=O)c3c(OC)c4c(cc3n(C)c2c1OC)OCO4 | 32.3 | 56.9 | 
2 | COc1cc2c(c(O)c1OC)c(=O)c1ccccc1n2C [ARBORININE] | 3.85 | 9.34 | 
3 | CCN(CC)CCCC(C)Nc1ccnc2cc(Cl)ccc12.O=P(O)(O)O.O=P(O)(O)O (stereo not drawn) [CHLOROQUINE PHOSPHATE] |  |  | Activity (Plasmodium berghei [3]): 100%
4 | COc1c(OC)c(OC)c2c(c1OC)c(=O)c1ccccc1n2C [MELICOPICINE] | > 100 | > 100 | 
5 | COc1c(OC)c(OC)c2c(c1O)c(=O)c1ccccc1n2C [NORMELICOPICINE] | 8.25 | 14.7 | Activity (Plasmodium berghei [4]): 32.1%; IC50 (KB): > 328 µM; selectivity ratio [5]: 22; selectivity ratio [6]: 40
6 | COc1cc([C@@H]2c3cc4c(cc3[C@H](O)[C@H]3COC(=O)[C@H]23)OCO4)cc(OC)c1OC [PODOFILOX] |  |  | IC50 (KB): 0.0048 µM
7 | COc1ccc2c(OC)c3ccoc3nc2c1OC [SKIMMIANINE] | 47.5 | 59 | 
8 | COc1c2c(cc3c1c(=O)c1cccc(OC)c1n3C)OCO2 [TECLEANTHINE] | 23.2 | 53 | 
